{"source": "patent US20220017572A1", "about": "“GEMINOID LIPOPEPTIDE COMPOUNDS AND THEIR USES” (Erasmus University Medical Center Rotterdam, priority 2016, published 2022)", "key": {"dengue 2 protease [1]": {"molecular_target": "T1, dengue 2 protease (Dengue virus type 2, UniProt P14340)", "T1 construct": "The active site of the dengue protease is in the N-terminal part of NS3", "T1 sequence (P14340 1476-1653)": "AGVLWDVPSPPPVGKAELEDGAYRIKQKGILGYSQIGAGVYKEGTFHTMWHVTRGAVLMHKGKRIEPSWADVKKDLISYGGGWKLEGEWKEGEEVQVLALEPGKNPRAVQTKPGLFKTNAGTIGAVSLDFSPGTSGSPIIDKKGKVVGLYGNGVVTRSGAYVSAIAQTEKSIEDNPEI", "assay": "Dengue 2 protease inhibition, hydrolysis of Z-RR-MCA", "format": "biochemical, dengue 2 virus", "parameters": "unit not given here", "conditions": "10 μM Z-RR-MCA, pH 9.0, 37° C., initial activity in UAF/min"}, "dengue 2 protease [2]": {"molecular_target": "T1, dengue 2 protease", "assay": "Dengue 2 protease inhibition, hydrolysis of Z-RR-MCA", "format": "biochemical, dengue 2 virus", "parameters": "Activity with inhibitors: unit not given here", "experimental": "The active site of the dengue protease is in the N-terminal part of NS3 which is also a serine protease with catalytic triad Asp79-His51-Ser135, but requires […] (CF40) for activity; the inhibition reported here was studied on a […] (CF40-GGGGSGGGG-NS3; (SEQ ID NO:54)) which has also been structurally characterized [Erbel et al., 2006; Luo et al. 2008].\n(§1) Substrate was added in a concentration 10 times the Km, and the inhibitor compounds of type C (C16-KGnK-C16, C16-KAnK-C16, and C16-RAnR-C16) were added in increasing concentrations (1.0, 5.0, 10.0, 20.0, 40.0 μL) from a stock solution of 2 mg in 1 mL DMSO. The residual activity was measured in a Hitachi F2500 spectrofluorimeter, and plots were fitted using the Grafit® software (Erithracus Software, Horley, Surrey, UK). All the assays were calculated by the Morrison equation for competitive inhibition (eq. 1, [Morrison, 1969]). The amount of substrate used for the tight binding titration experiments follow all the requirements, where [S]<<Km for all enzymes, so the Kiapp=Ki.\n(§2) Range of Proteases Inhibited by Geminoids, Determination of Ki with Z-RR-MCA (Dengue 2 Protease) and Ac-RVRR-MCA (Furin) (SEQ ID NO:60)."}, "dengue 2 protease [3]": {"molecular_target": "T1, dengue 2 protease", "assay": "Dengue 2 protease inhibition in presence of Triton X-100 (detergent test, Nature Protocol)", "format": "biochemical, dengue 2 virus", "conditions": "0.05% Triton X-100; for Activity with 0.05% Triton: initial activity in UAF/min", "source_text": "A further investigation of the interactions of the geminoid inhibitors with biological membranes and with membrane-bound proteases is needed. […] The preparation and tests of peptides symmetrically, asymmetrically and singly alkylated with saturated, short (C6), and unsaturated (C18:1) alkyl tails are in progress."}, "trypsin": {"molecular_target": "T2, trypsin (Bos taurus, UniProt P00760)", "T2 construct": "gene PRSS1", "T2 sequence (P00760 24-246)": "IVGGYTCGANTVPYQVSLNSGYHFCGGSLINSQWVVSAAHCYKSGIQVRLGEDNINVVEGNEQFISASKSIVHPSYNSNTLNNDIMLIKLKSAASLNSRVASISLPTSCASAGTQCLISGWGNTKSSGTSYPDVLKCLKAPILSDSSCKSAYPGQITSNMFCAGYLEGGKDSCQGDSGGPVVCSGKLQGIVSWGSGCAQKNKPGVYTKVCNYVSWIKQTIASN", "assay": "Trypsin inhibition, fluorimetric enzyme assay", "format": "biochemical", "experimental": "as §1, with “The enzyme was dissolved in 1 mL MES buffer (10 mM), 1 mM CaCl2, pH 7.0 at 36.5° C. Substrate” for “Substrate”\nThe first group of gemini-like peptide amphiphiles to be screened was that of C16-K(G or A)nK-C16 (compound type C, with R1=n-C15H31, R2=n-C16H33). […] The results of the Ki determination for trypsin, dengue 2 protease, and human furin are given in Table 1A; some general data for the inhibition by this type of compounds are given in Table 1B. For most compounds in Table 1 the Ki could be derived from competitive inhibition experiments. Judging from the Ki values with the relatively simple substrate Z-RR-MCA, the best inhibitors for dengue 2 protease contain alanine (A) rather than glycine (G)."}, "DENV2 protease": {"molecular_target": "T3, DENV2 protease (Dengue virus type 2, UniProt P14340)", "T3 construct": "The active site of the dengue protease is in the N-terminal part of NS3", "T3 sequence (P14340 1476-1653)": "as the sequence (P14340 1476-1653) above", "T3 sequence (P14340 1398-1437)": "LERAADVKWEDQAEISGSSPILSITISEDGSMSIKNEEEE", "assay": "DENV2 protease biochemical assay", "conditions": "50 μM inhibitor"}, "DENV2 protease replicon": {"system": "DENV2 protease replicon", "assay": "DENV2 protease replicon assay", "format": "cell-based", "conditions": "lowest concentration with observed activity in replicon assay"}, "thrombin": {"molecular_target": "thrombin (Homo sapiens, UniProt P00734)", "assay": "Thrombin inhibition, fluorimetric enzyme assay", "format": "biochemical", "conditions": "36.5° C., read-out: Residual Activity (%) Thrombin", "experimental": "as §1, with “The enzyme was dissolved in 1 mL MES buffer (10 mM), 1 mM CaCl2, pH 7.0 at 36.5° C. Substrate” for “Substrate”, “Kiapp=Ki. […]” for “Kiapp=Ki.”"}, "human furin": {"molecular_target": "human furin (Homo sapiens, UniProt P09958)", "sequence (P09958 108-794)": "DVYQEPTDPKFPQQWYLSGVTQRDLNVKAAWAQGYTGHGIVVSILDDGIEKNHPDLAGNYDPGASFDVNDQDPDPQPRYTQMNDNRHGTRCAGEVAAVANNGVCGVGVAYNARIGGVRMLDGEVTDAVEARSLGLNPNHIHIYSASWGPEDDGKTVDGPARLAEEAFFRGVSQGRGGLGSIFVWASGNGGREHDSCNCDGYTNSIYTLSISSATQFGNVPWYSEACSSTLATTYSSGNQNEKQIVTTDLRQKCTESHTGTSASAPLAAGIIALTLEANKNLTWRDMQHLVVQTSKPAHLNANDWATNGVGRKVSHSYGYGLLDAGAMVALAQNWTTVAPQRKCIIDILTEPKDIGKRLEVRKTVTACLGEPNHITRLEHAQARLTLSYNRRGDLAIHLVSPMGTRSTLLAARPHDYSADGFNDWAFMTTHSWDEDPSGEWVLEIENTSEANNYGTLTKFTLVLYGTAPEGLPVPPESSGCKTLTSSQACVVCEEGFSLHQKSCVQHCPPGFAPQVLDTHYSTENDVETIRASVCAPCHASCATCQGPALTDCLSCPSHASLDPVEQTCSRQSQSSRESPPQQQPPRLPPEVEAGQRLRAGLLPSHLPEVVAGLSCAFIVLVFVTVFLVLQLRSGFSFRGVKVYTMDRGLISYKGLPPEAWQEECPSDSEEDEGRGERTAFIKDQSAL", "assay": "Human furin inhibition, hydrolysis of Ac-RVRR-MCA", "format": "biochemical", "conditions": "36.5° C.", "experimental": "as §1, with “The enzyme was dissolved in 1 mL MES buffer (10 mM), 1 mM CaCl2, pH 7.0 at 36.5° C. Substrate” for “Substrate”\nHowever, for furin we used a correction of Ki app, where [S]˜Km (eq. 2).\nas §2"}}, "note": "Residues, ends and D or L forms follow the SMILES beside them.", "data": [{"compound": "CCCCCCCCCCCCNC(=O)[C@H](CCCCN)NC(=O)[C@H](CCCCN)NC(=O)CCCCCCCCCCC", "note": "[C12KKC12, n-C11H23C(O)-Lys-Lys-(n-C12H25).2TFA]", "values": [{"measurement": "Activity with inhibitors", "setting": "dengue 2 protease [1]; 30 μM of inhibitor", "result": 0}, {"measurement": "Ki", "setting": "dengue 2 protease [2]", "result": 132, "unit": "µM"}, {"measurement": "% recovery in presence of Triton", "setting": "dengue 2 protease [3]; 30 μM of inhibitor", "result": 82, "unit": "%"}, {"measurement": "Activity with 0.05% Triton", "setting": "dengue 2 protease [3]; 30 μM of inhibitor", "result": 180}]}, {"compound": "CCCCCCCCCCCCCCCCNC(=O)[C@H](CCCNC(=N)N)NC(=O)[C@H](C)NC(=O)[C@H](C)NC(=O)[C@H](C)NC(=O)[C@H](C)NC(=O)[C@H](CCCNC(=N)N)NC(=O)CCCCCCCCCCCCCCC", "note": "[C16RA4RC16, n-C15H31C(O)-Arg-(la)4-Arg-(n-C16H33).2TFA] (HELM PEPTIDE1{[CCCCCCCCCCCCCCCC(=O)[*:2]].R.A.A.A.A.R.[CCCCCCCCCCCCCCCCN[*:1]]}$$$$V2.0)", "values": [{"measurement": "Activity with inhibitors", "setting": "dengue 2 protease [1]; 20 μM of inhibitor", "result": 22}, {"measurement": "Ki", "setting": "dengue 2 protease [2]", "result": 1.4, "unit": "µM"}, {"measurement": "% recovery in presence of Triton", "setting": "dengue 2 protease [3]; 20 μM of inhibitor", "result": 68, "unit": "%"}, {"measurement": "Activity with 0.05% Triton", "setting": "dengue 2 protease [3]; 20 μM of inhibitor", "result": 164}]}, {"compound": "CCCCCCCCCCCCCCCCNC(=O)[C@H](CCCNC(=N)N)NC(=O)[C@H](CCCNC(=N)N)NC(=O)CCCCCCCCCCCCCCC", "note": "[C16RRC16, n-C15H31C(O)-Arg-Arg-(n-C16H33).2TFA]", "values": [{"measurement": "Activity with inhibitors", "setting": "dengue 2 protease [1]; 20 μM of inhibitor", "result": 48}, {"measurement": "Ki", "setting": "dengue 2 protease [2]", "result": 0.8, "unit": "µM"}, {"measurement": "% recovery in presence of Triton", "setting": "dengue 2 protease [3]; 20 μM of inhibitor", "result": 74, "unit": "%"}, {"measurement": "Activity with 0.05% Triton", "setting": "dengue 2 protease [3]; 20 μM of inhibitor", "result": 148}]}, {"compound": "CCCCCCCCCCCCCCCCNC(=O)[C@H](CCCCN)NC(=O)CNC(=O)[C@H](CCCCN)NC(=O)CCCCCCCCCCCCCCC", "note": "[C16-KGK-C16, C15H31CO-KGK-NH—C16H33]", "values": [{"measurement": "Ki", "setting": "trypsin", "result": 41.6, "unit": "µM"}, {"measurement": "remaining activity at 15 µM", "setting": "trypsin; 15 μM inhibitor, 36.5° C., read-out: Residual Activity (%) Trypsin", "result": 76, "unit": "%"}, {"measurement": "remaining activity at 55 µM", "setting": "trypsin; 55 μM inhibitor, 36.5° C., read-out: Residual Activity (%) Trypsin", "result": 40, "unit": "%"}, {"measurement": "remaining activity at 85 µM", "setting": "trypsin; 85 μM inhibitor, 36.5° C., read-out: Residual Activity (%) Trypsin", "result": 24, "unit": "%"}, {"measurement": "inhibition at 50 µM", "setting": "DENV2 protease", "result": 103, "unit": "%"}, {"measurement": "Replicon activity [μM] (1)", "setting": "DENV2 protease replicon", "result": 1.0, "unit": "µM"}, {"measurement": "Ki", "setting": "dengue 2 protease [2]", "result": 1.56, "unit": "µM"}, {"measurement": "activity at 5 µM", "setting": "dengue 2 protease [2]; 5 μM inhibitor, 36.5° C.", "result": 75, "unit": "%"}, {"measurement": "activity at 10 µM", "setting": "dengue 2 protease [2]; 10 μM inhibitor, 36.5° C.", "result": 54, "unit": "%"}, {"measurement": "activity at 15 µM", "setting": "dengue 2 protease [2]; 15 μM inhibitor, 36.5° C.", "result": 40, "unit": "%"}, {"measurement": "activity at 20 µM", "setting": "dengue 2 protease [2]; 20 μM inhibitor, 36.5° C.", "result": 29, "unit": "%"}, {"measurement": "Activity with inhibitors", "setting": "dengue 2 protease [2]; 25 μM of inhibitor, 10 μM Z-RR-MCA, pH 9.0, 37° C., initial activity in UAF/min", "result": 50}, {"measurement": "activity at 40 µM", "setting": "dengue 2 protease [2]; 40 μM inhibitor, 36.5° C.", "result": 2, "unit": "%"}, {"measurement": "remaining activity at 15 µM", "setting": "thrombin; 15 μM inhibitor", "result": 75, "unit": "%"}, {"measurement": "remaining activity at 55 µM", "setting": "thrombin; 55 μM inhibitor", "result": 61, "unit": "%"}, {"measurement": "remaining activity at 85 µM", "setting": "thrombin; 85 μM inhibitor", "result": 40, "unit": "%"}, {"measurement": "activity at 5 µM", "setting": "human furin; 5 μM inhibitor", "result": 53, "unit": "%"}, {"measurement": "activity at 10 µM", "setting": "human furin; 10 μM inhibitor", "result": 18, "unit": "%"}, {"measurement": "activity at 15 µM", "setting": "human furin; 15 μM inhibitor", "result": 7, "unit": "%"}, {"measurement": "activity at 20 µM", "setting": "human furin; 20 μM inhibitor", "result": 4, "unit": "%"}, {"measurement": "activity at 40 µM", "setting": "human furin; 40 μM inhibitor", "result": 0, "unit": "%"}, {"measurement": "% recovery in presence of Triton", "setting": "dengue 2 protease [3]; 25 μM of inhibitor", "result": 48, "unit": "%"}, {"measurement": "Activity with 0.05% Triton", "setting": "dengue 2 protease [3]; 25 μM of inhibitor", "result": 90}]}]}
